Experimental data taken from ChEMBL document CHEMBL1201862, “PubChem BioAssay data set” (2004).
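All cell lines were grown in 96-well plates and treated with compound for 48 hours. GI50: concentration for 50% inhibition of growth.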 Activity calls are given as the source filed them. Cut-off read from the data, not from the text of the source: active = GI50 up to about 1.1 µM and inactive = higher.

Tests used:
Assay in all cases: DTP human tumour cell line panel, 48 h
U-251 = test system: U-251
NCI-H226 = test system: NCI-H226
ACHN = test system: ACHN
SK-MEL-5 = test system: SK-MEL-5
SF-539 = test system: SF-539
UO-31 = test system: UO-31
CAKI-1 = test system: CAKI-1
UACC-62 = test system: UACC-62
RXF 393 = test system: RXF 393
OVCAR-8 = test system: OVCAR-8
PC-3 = test system: PC-3
TK-10 = test system: TK-10
MDA-MB-435 = test system: MDA-MB-435
A549 = test system: A549
786-0 = test system: 786-0
HCC 2998 = test system: HCC 2998
MDA-N = test system: MDA-N
RPMI-8226 = test system: RPMI-8226
SK-OV-3 = test system: SK-OV-3
A498 = test system: A498

Row | Structure (SMILES) | GI50 (U-251) | GI50 (NCI-H226) | GI50 (ACHN) | GI50 (SK-MEL-5) | GI50 (SF-539) | GI50 (UO-31) | GI50 (CAKI-1) | GI50 (UACC-62) | GI50 (RXF 393) | GI50 (OVCAR-8) | GI50 (PC-3) | GI50 (TK-10) | GI50 (MDA-MB-435) | GI50 (A549) | GI50 (786-0) | GI50 (HCC 2998) | GI50 (MDA-N) | GI50 (RPMI-8226) | GI50 (SK-OV-3) | GI50 (A498)
1 | O/N=C1/CCCCCC1NO (stereo unspecified) | > 100 µM (inactive) | > 100 µM (inactive) | > 100 µM (inactive) | > 100 µM (inactive) | > 100 µM (inactive) | > 100 µM (inactive) | > 100 µM (inactive) | > 100 µM (inactive) | > 100 µM (inactive) | > 100 µM (inactive) | > 100 µM (inactive) | > 100 µM (inactive) | > 100 µM (inactive) | > 100 µM (inactive) | > 100 µM (inactive) | > 100 µM (inactive) | > 100 µM (inactive) | > 100 µM (inactive) | > 100 µM (inactive) | –
2 | CNc1nc(C(N)=O)c(N)s1 | > 100 µM (inactive) | > 100 µM (inactive) | > 100 µM (inactive) | 84.9 µM (inactive) | > 100 µM (inactive) | > 100 µM (inactive) | > 100 µM (inactive) | > 100 µM (inactive) | > 100 µM (inactive) | > 100 µM (inactive) | > 100 µM (inactive) | > 100 µM (inactive) | > 100 µM (inactive) | > 100 µM (inactive) | > 100 µM (inactive) | – | > 100 µM (inactive) | > 100 µM (inactive) | > 100 µM (inactive) | > 100 µM (inactive)
3 | CN(C)Cc1cc(Cl)c(O)c(CN(C)C)c1 | > 100 µM (inactive) | > 100 µM (inactive) | > 100 µM (inactive) | > 100 µM (inactive) | – | > 100 µM (inactive) | > 100 µM (inactive) | > 100 µM (inactive) | > 100 µM (inactive) | > 100 µM (inactive) | > 100 µM (inactive) | > 100 µM (inactive) | > 100 µM (inactive) | > 100 µM (inactive) | > 100 µM (inactive) | > 100 µM (inactive) | > 100 µM (inactive) | > 100 µM (inactive) | > 100 µM (inactive) | > 100 µM (inactive)
4 | CC(C)(O)C1CC[C@]2(C)CC[C@]3(C)[C@H](CC[C@@H]4[C@@]5(C)CC[C@H](O)C(C)(C)[C@@H]5CC[C@]43C)[C@@H]12 (stereo partly specified) | 35.6 µM (inactive) | 44.4 µM (inactive) | 22.1 µM (inactive) | 26 µM (inactive) | 23.4 µM (inactive) | 58.2 µM (inactive) | 22.1 µM (inactive) | 39 µM (inactive) | 33.6 µM (inactive) | 32.7 µM (inactive) | 30.3 µM (inactive) | 27.5 µM (inactive) | 34.1 µM (inactive) | 30.1 µM (inactive) | 25.2 µM (inactive) | 26.8 µM (inactive) | 47.8 µM (inactive) | 34.3 µM (inactive) | 23.1 µM (inactive) | –
5 | COc1ccc(C(=O)c2cc(OC)c(OC)c(OC)c2)cc1OC | 3.94 µM (inactive) | – | 9.25 µM (inactive) | 4.44 µM (inactive) | 2.32 µM (inactive) | 3.71 µM (inactive) | – | 4.57 µM (inactive) | 2.36 µM (inactive) | 5.38 µM (inactive) | 3.86 µM (inactive) | > 100 µM (inactive) | 0.436 µM (active) | 4.44 µM (inactive) | 4.98 µM (inactive) | 2.81 µM (inactive) | 0.618 µM (active) | 7.53 µM (inactive) | – | –
6 | NC(=O)CN1CCN(c2nc(N3CCCC3)c3nc(Cl)c(NCc4ccccc4)nc3n2)CC1 | 8.59 µM (inactive) | 11.8 µM (inactive) | 12.4 µM (inactive) | 8.45 µM (inactive) | 9.06 µM (inactive) | 10.7 µM (inactive) | 17 µM (inactive) | 9.2 µM (inactive) | 7.96 µM (inactive) | 15 µM (inactive) | 11.8 µM (inactive) | 14.2 µM (inactive) | 10 µM (inactive) | 12.9 µM (inactive) | 8.89 µM (inactive) | 8.38 µM (inactive) | 8.67 µM (inactive) | 9.89 µM (inactive) | 9.91 µM (inactive) | –
7 | COc1cc2ccc1OCc1cccc(n1)COc1ccc(cc1OC)/C=N\c1ccc(cc1)/N=C\2 | > 100 µM (inactive) | > 100 µM (inactive) | > 100 µM (inactive) | > 100 µM (inactive) | > 100 µM (inactive) | > 100 µM (inactive) | > 100 µM (inactive) | > 100 µM (inactive) | > 100 µM (inactive) | > 100 µM (inactive) | > 100 µM (inactive) | > 100 µM (inactive) | > 100 µM (inactive) | > 100 µM (inactive) | > 100 µM (inactive) | > 100 µM (inactive) | > 100 µM (inactive) | – | > 100 µM (inactive) | > 100 µM (inactive)
8 | CN(C)CCCNc1c2ccccc2[n+]([O-])c2ccccc12 | 62.8 µM (inactive) | 22 µM (inactive) | 49.1 µM (inactive) | 40.1 µM (inactive) | 45.9 µM (inactive) | 34.5 µM (inactive) | 49.4 µM (inactive) | > 100 µM (inactive) | 47.8 µM (inactive) | 41.9 µM (inactive) | 46.5 µM (inactive) | 31.9 µM (inactive) | 50.8 µM (inactive) | 44.6 µM (inactive) | 40.6 µM (inactive) | – | 68.7 µM (inactive) | 46.7 µM (inactive) | 82.6 µM (inactive) | 54.8 µM (inactive)
9 | Cc1ccc2nc3c(=O)[nH]c(=O)nc-3n(C)c2c1C | > 100 µM (inactive) | > 100 µM (inactive) | > 100 µM (inactive) | > 100 µM (inactive) | > 100 µM (inactive) | > 100 µM (inactive) | > 100 µM (inactive) | > 100 µM (inactive) | > 100 µM (inactive) | > 100 µM (inactive) | > 100 µM (inactive) | > 100 µM (inactive) | > 100 µM (inactive) | > 100 µM (inactive) | > 100 µM (inactive) | > 100 µM (inactive) | > 100 µM (inactive) | > 100 µM (inactive) | > 100 µM (inactive) | –
10 | Nc1nc(Cl)cc(OCC2(CO)CCCCC2)n1 | 86.5 µM (inactive) | > 100 µM (inactive) | > 100 µM (inactive) | 40.9 µM (inactive) | > 100 µM (inactive) | – | – | – | 63.7 µM (inactive) | 96.6 µM (inactive) | > 100 µM (inactive) | > 100 µM (inactive) | > 100 µM (inactive) | 69.7 µM (inactive) | > 100 µM (inactive) | 24.8 µM (inactive) | > 100 µM (inactive) | 60.5 µM (inactive) | – | 40.7 µM (inactive)
11 | COC(=O)c1ccccc1/C=C1\Cc2ccc3c(c2C1=O)CCCC3 | > 100 µM (inactive) | > 100 µM (inactive) | > 100 µM (inactive) | – | > 100 µM (inactive) | > 100 µM (inactive) | > 100 µM (inactive) | > 100 µM (inactive) | – | > 100 µM (inactive) | > 100 µM (inactive) | > 100 µM (inactive) | > 100 µM (inactive) | > 100 µM (inactive) | > 100 µM (inactive) | > 100 µM (inactive) | > 100 µM (inactive) | > 100 µM (inactive) | > 100 µM (inactive) | > 100 µM (inactive)
12 | N#Cc1nc(C2CCC(=O)O2)oc1N (stereo unspecified) | > 100 µM (inactive) | > 100 µM (inactive) | > 100 µM (inactive) | > 100 µM (inactive) | > 100 µM (inactive) | > 100 µM (inactive) | > 100 µM (inactive) | > 100 µM (inactive) | > 100 µM (inactive) | > 100 µM (inactive) | > 100 µM (inactive) | > 100 µM (inactive) | > 100 µM (inactive) | – | > 100 µM (inactive) | – | > 100 µM (inactive) | > 100 µM (inactive) | > 100 µM (inactive) | > 100 µM (inactive)
13 | Cc1ccc(S(=O)(=O)N/N=C2\C=C[C@]3(CC2)C(=O)N(C)c2ccccc23)cc1 | > 100 µM (inactive) | 69 µM (inactive) | > 100 µM (inactive) | > 100 µM (inactive) | – | > 100 µM (inactive) | > 100 µM (inactive) | > 100 µM (inactive) | > 100 µM (inactive) | > 100 µM (inactive) | > 100 µM (inactive) | – | > 100 µM (inactive) | > 100 µM (inactive) | 33.5 µM (inactive) | > 100 µM (inactive) | > 100 µM (inactive) | > 100 µM (inactive) | > 100 µM (inactive) | > 100 µM (inactive)
14 | CN1CCN(c2cc3[nH]c(-c4ccc(Cl)cc4)nc3cc2F)CC1 | 21.4 µM (inactive) | 6.81 µM (inactive) | 12.5 µM (inactive) | 10.6 µM (inactive) | – | 7.1 µM (inactive) | 19.5 µM (inactive) | 4.32 µM (inactive) | 13.8 µM (inactive) | 26.9 µM (inactive) | 16.8 µM (inactive) | 4.37 µM (inactive) | 11.4 µM (inactive) | 17.6 µM (inactive) | 20.1 µM (inactive) | 4.71 µM (inactive) | 12.8 µM (inactive) | 14.1 µM (inactive) | 22.2 µM (inactive) | 18.2 µM (inactive)
15 | O=C1c2ccccc2C(=O)N1CC1(C(=O)O)NCCS1(=O)=O (stereo unspecified) | > 100 µM (inactive) | > 100 µM (inactive) | > 100 µM (inactive) | > 100 µM (inactive) | > 100 µM (inactive) | > 100 µM (inactive) | > 100 µM (inactive) | > 100 µM (inactive) | > 100 µM (inactive) | > 100 µM (inactive) | > 100 µM (inactive) | > 100 µM (inactive) | > 100 µM (inactive) | > 100 µM (inactive) | > 100 µM (inactive) | – | > 100 µM (inactive) | > 100 µM (inactive) | > 100 µM (inactive) | > 100 µM (inactive)
